IC50 data for 20 molecules are collected here from US10053453B2, “Compounds and their use as BACE inhibitors” (AstraZeneca AB, priority 2014, dated 2018).

In test [1] the target is T1, Human BACE1 (Homo sapiens, UniProt P56817).
T1 construct: the soluble part of the human β-Secretase1 (AA1-AA460) was cloned using the BACE1(1-460)-(AVT)-Fc-pGEN-IRES-neo mammalian expression vector; AVT linker (C); made in house
Kind of test: Diluted TR-FRET assay. The conditions noted are these: 50 times less enzyme, 6.5 h reaction time at r.t.; read-out: IC50 BACE1 (dil. TR-FRET). Format: biochemical. Here is the method: (§1) The β-secretase enzyme used in the TR-FRET was prepared as follows:
(§2) Human BACE1: the cDNA for the soluble part of the human β-Secretase1 (AA1-AA460) was cloned using the BACE1(1-460)-(AVT)-Fc-pGEN-IRES-neo mammalian expression vector. The gene was fused to the Fe domain of IgG1 (affinity tag) and stably cloned into HEK 293 cells. […]
A multidrop Combi was used for the liquid handling. Enzyme (7 μL) was added to the compound plate (containing 0.8 μL of compound in dimethylsulphoxide). The plate was incubated for 10 minutes. […] The reaction was stopped with the addition of Stop solution (5.5 μL, NaOAC, pH 9). Fluorescence was measured on a Pherastar plate reader using HTRF module. […] 5 reference inhibitors with different affinities were used at all screen occasions in dose response.

Test [2] deals with SH-SY5Y cells. Kind of test: sAPPβ release assay.
Experimental: Cells were thawed and seeded at a concentration of around 10000 cells/well in DMEM/F-12 with Glutamax, 10% FCS and 1% non-essential amino acids to a 384-well tissue culture treated plate, 30 μL cell susp/well. The cell plates were then incubated for 7-24 h at 37° C., 5% CO2.
The cell medium was removed, followed by addition of 50 μL compound diluted in DMEM/F-12 with Glutamax, 10% FCS, 1% non-essential amino acids to a final cone of 0.5% DMSO. The compounds were incubated with the cells for 16-17 h (overnight) at 37° C., 5% CO2.
Meso Scale Discovery (MSD) plates were used for the detection of sAPP release. MSD sAPPβ plates were blocked in 1% BSA in Tris wash buffer for 1 h on shake at r.t. and washed 1 time in Tris wash buffer. […] The MSD plates were incubated with shaking at r.t. for 2 h and the media discarded. 10 μL detection antibody was added (1 nM) per well followed by incubation with shaking at r.t. for 2 h and then discarded. 35 μL Read Buffer was added per well and the plates were read in a Meso Scale Discovery SECTOR6000 Imager.
Test [3] concerns the target T2, Human BACE2 (Homo sapiens, UniProt Q9Y5Z0).
T2 construct: the soluble part of the human β-Secretase2 (AA1-AA473) was cloned using BACE2(1-473)-(AVT)-Fc-pDEST12.2 mammalian expression vector; AVT linker (C); made in house
T2 sequence (Q9Y5Z0 21-473): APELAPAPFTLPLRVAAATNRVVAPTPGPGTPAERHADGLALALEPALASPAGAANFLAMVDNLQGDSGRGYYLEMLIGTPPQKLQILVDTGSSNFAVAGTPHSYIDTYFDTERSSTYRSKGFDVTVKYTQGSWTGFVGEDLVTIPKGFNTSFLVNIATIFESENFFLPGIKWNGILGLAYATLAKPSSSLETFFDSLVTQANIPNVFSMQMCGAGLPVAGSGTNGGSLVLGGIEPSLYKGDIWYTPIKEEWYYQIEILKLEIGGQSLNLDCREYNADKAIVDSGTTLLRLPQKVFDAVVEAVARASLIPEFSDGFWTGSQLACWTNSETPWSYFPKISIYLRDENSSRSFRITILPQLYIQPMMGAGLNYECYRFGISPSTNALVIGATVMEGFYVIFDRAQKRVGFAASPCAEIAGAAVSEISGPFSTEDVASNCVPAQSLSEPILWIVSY
Kind of test: TR-FRET assay. Format: biochemical. The conditions noted are these: enzyme 2.7 μg/mL, substrate 100 nM, pH4.5. Here is the method:
as §1, §2
A multidrop Combi was used for the liquid handling. Enzyme (7 μL) was added to the compound plate (containing 0.8 μL of compound in dimethylsulphoxide). The plate was incubated for 10 minutes. Substrate (8 μL) was then added, and the reaction proceeded for 17 minutes at r.t. The reaction was stopped with the addition of Stop solution (5.5 μL, NaOAC, pH 9). Fluorescence was measured on a Pherastar plate reader using HTRF module. […] 5 reference inhibitors with different affinities were used at all screen occasions in dose response.
(In TR-FRET formats the signal depends on donor and acceptor labels being close together.)

[4] abbreviates: Homo sapiens, SH-SY5Y, read-out: IC50 Cell (sAPPβ release, nM).
Setting [5] is: Homo sapiens, SH-SY5Y, read-out: IC50 Cell (sAPPβ release, nM), SH-SY5Y cells, compounds incubated 16-17 h.

Read-outs that look alike come from different tables or passages of the source. Where only a bound is given, the exact number is not on record here.

T1 sequence (P56817 22-460): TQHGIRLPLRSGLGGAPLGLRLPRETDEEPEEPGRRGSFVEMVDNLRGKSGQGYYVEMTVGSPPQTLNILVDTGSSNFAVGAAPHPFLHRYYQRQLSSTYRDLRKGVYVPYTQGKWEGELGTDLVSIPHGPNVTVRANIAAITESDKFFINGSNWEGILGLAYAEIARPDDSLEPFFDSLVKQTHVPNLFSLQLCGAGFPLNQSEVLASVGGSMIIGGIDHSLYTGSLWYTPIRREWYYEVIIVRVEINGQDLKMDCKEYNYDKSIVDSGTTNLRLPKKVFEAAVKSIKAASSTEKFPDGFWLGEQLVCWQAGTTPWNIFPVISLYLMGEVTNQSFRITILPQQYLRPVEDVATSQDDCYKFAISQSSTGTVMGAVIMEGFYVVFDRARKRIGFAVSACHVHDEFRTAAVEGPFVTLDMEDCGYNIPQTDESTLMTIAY

The IC50 is the concentration needed to halve the response being measured. In the case of `CO[C@H]1CC[C@]2(CC1)Cc1ccc(-c3cncnc3)cc1C21COC(N)=N1` (stereo partly drawn) [Compound 50, (1r,4r)-4-methoxy-6′-(pyrimidin-5-yl)-3′H,5″H-dispiro[cyclohexane-1,2′-indene-1′,4″-oxazol]-2″-amine], the IC50 in test [1] was found to be 579 nM; in test [2] (setting [4]), 16 nM.

For the molecule `[2H]C1([2H])OC(N)=NC12c1cc(-c3cc(C#N)cc(OC)c3)ccc1C[C@]21CC[C@@H](OC)CC1` (stereo partly drawn) [Compound 36, 3-((1r,4r)-2″-amino-4-methoxy-3′H,5″H-dispiro[cyclohexane-1,2′-indene-1′,4″-oxazol]-6′-yl-5″,5″-d2)-5-methoxybenzonitrile], the IC50 in test [2] (setting [4]) was found to be 4 nM.

Consider `[2H]C([2H])([2H])O[C@@H]1CC[C@]2(Cc3ccc(-c4cncc(F)c4)cc3[C@]23N=C(N)OC3([2H])[2H])C[C@H]1C` [Compound 79, (1R,1′R,3R,4R)-6′-(5-fluoropyridin-3-yl)-4-(methoxy-d3)-3-methyl-3′H,5″H-dispiro[cyclohexane-1,2′-indene-1′,4″-oxazol]-5″,5″-d2-2″-amine], for which the IC50 in test [3] amounted to 207 nM; in test [2] (setting [5]), 2.1 nM.

`[2H]C([2H])([2H])O[C@@H]1CC[C@]2(Cc3ccc(-c4cccnc4F)cc3[C@]23N=C(N)OC3([2H])[2H])C[C@H]1C` [Compound 78, (1R,1′R,3R,4R)-6′-(2-fluoropyridin-3-yl)-4-(methoxy-d3)-3-methyl-3′H,5″H-dispiro[cyclohexane-1,2′-indene-1′,4″-oxazol]-5″,5″-d2-2″-amine]: the IC50 came to 895 nM in test [3] and 1.5 nM in test [2] (setting [5]).

For the molecule `[2H]C1([2H])OC(N)=N[C@]12c1cc(-c3cccnc3F)ccc1C[C@@]21CC[C@H](OC)[C@@H](C)C1` [Compound 5, (1S,1′R,3S,4S)-6′-(2-fluoropyridin-3-yl)-4-methoxy-3-methyl-3′H,5″H-dispiro[cyclohexane-1,2′-indene-1′,4″-oxazol]-5″,5″-d2-2″-amine], the IC50 in test [3] turned out to be 888 nM; in test [2] (setting [5]) it was 1.6 nM.

For `[2H]C1([2H])OC(N)=N[C@]12c1cc(-c3cncnc3)ccc1C[C@@]21CC[C@H](OC)[C@@H](CC)C1` [Compound 68, (1S,1′R,3S,4S)-3-ethyl-4-methoxy-6′-(pyrimidin-5-yl)-3′H,5″H-dispiro[cyclohexane-1,2′-indene-1′,4″-oxazol]-5″,5″-d2-2″-amine], in test [2] (setting [4]), the IC50 amounted to 1.9 nM.

Take `[2H]C1([2H])OC(N)=N[C@]12c1cc(-c3cncc(F)c3)ccc1C[C@]21CC[C@@H](OC)[C@H](C)C1` [Compound 25, (1R,1′R,3R,4R)-6′-(5-fluoropyridin-3-yl)-4-methoxy-3-methyl-3′H,5″H-dispiro[cyclohexane-1,2′-indene-1′,4″-oxazol]-5″,5″-d2-2″-amine]: the IC50 in test [3] is 135 nM; in test [2] (setting [5]), 1.8 nM.

For the molecule `COC1CCC2(CC1)Cc1ccc(-c3cc(Cl)cc(C#N)c3)cc1C21COC(N)=N1` (stereo not drawn) [Compound 18, 3-((1r,4r)-2″-amino-4-methoxy-3′H,5″H-dispiro[cyclohexane-1,2′-indene-1′,4″-oxazol]-6′-yl-5″,5″-d2)-5-chlorobenzonitrile], in test [2] (read-out: IC50 Cell (sAPPβ release), SH-SY5Y cells, compounds incubated 16-17 h), the IC50 came out at 3.3 nM.

For `CO[C@@H]1CC[C@]2(Cc3ccc(-c4cncnc4)cc3[C@@]23COC(N)=N3)C[C@H]1C` [Compound 33, (1R,1′R,3R,4R)-4-methoxy-3-methyl-6′-(pyrimidin-5-yl)-3′H,5″H-dispiro[cyclohexane-1,2′-indene-1′,4″-oxazol]-2″-amine], the IC50 in test [2] (setting [4]) turned out to be 2.2 nM.

Turning to `[2H]C1([2H])OC(N)=N[C@]12c1cc(-c3cc(F)cnc3F)ccc1C[C@]21CC[C@@H](OC)[C@H](C)C1` [Compound 109, {(1R,1′R,3R,4R)-6′-(2,5-difluoropyridin-3-yl)-4-methoxy-3-methyl-3′H,5″H-dispiro[cyclohexane-1,2′-indene-1′,4″-oxazol]-5″,5″-d2-2″-amine}], the IC50 in test [3] turned out to be 458 nM; in test [2] (setting [5]) it was 1.8 nM.

With `[2H]C1([2H])OC(N)=N[C@]12c1cc(-c3cncnc3)ccc1C[C@]21CC[C@@H](OC)[C@H](CC)C1` [Compound 75, (1R,1′R,3R,4R)-3-ethyl-4-methoxy-6′-(pyrimidin-5-yl)-3′H,5″H-dispiro[cyclohexane-1,2′-indene-1′,4″-oxazol]-5″,5″-d2-2″-amine], the IC50 in test [2] (setting [4]) stood at 0.9 nM.

Take `[2H]C1([2H])OC(N)=N[C@]12c1cc(-c3cncc(F)c3)ccc1C[C@@]21CC[C@H](OC)[C@@H](C)C1` [Compound 9, (1S,1′R,3S,4S)-6′-(5-fluoropyridin-3-yl)-4-methoxy-3-methyl-3′H,5″H-dispiro[cyclohexane-1,2′-indene-1′,4″-oxazol]-5″,5″-d2-2″-amine]: the figures for the IC50 in test [3] and in test [2] (setting [5]) were 118 nM and 0.5 nM, respectively.

Consider `[2H]C1([2H])OC(N)=N[C@]12c1cc(-c3cc(F)cnc3F)ccc1C[C@@]21CC[C@H](OC)[C@@H](C)C1` [Compound 76, (1S,1′R,3S,4S)-6′-(2,5-difluoropyridin-3-yl)-4-methoxy-3-methyl-3′H,5″H-dispiro[cyclohexane-1,2′-indene-1′,4″-oxazol]-5″,5″-d2-2″-amine], for which the results for the IC50 in test [3] and in test [2] (setting [5]) were 231 nM and 0.5 nM, respectively.

With `[2H]C([2H])([2H])O[C@@H]1CC[C@]2(Cc3ccc(-c4cncnc4)cc3[C@]23N=C(N)OC3([2H])[2H])C[C@H]1C` [Compound 73, (1R,1′R,3R,4R)-4-(methoxy-d3)-3-methyl-6′-(pyrimidin-5-yl)-3′H,5″H-dispiro[cyclohexane-1,2′-indene-1′,4″-oxazol]-5″,5″-d2-2″-amine], the IC50 in test [2] (setting [4]) was found to be 6.1 nM.

Regarding `[2H]C([2H])([2H])O[C@H]1CC[C@@]2(Cc3ccc(-c4cccnc4F)cc3[C@]23N=C(N)OC3([2H])[2H])C[C@@H]1C` [Compound 74, (1S,1′R,3S,4S)-6′-(2-fluoropyridin-3-yl)-4-(methoxy-d3)-3-methyl-3′H,5″H-dispiro[cyclohexane-1,2′-indene-1′,4″-oxazol]-5″,5″-d2-2″-amine], the IC50 in test [2] (setting [5]) worked out at 0.39 nM.

Regarding `[2H]C([2H])([2H])O[C@H]1CC[C@@]2(Cc3ccc(-c4cncnc4)cc3[C@]23N=C(N)OC3([2H])[2H])C[C@@H]1C` [Compound 71, (1S,1′R,3S,4S)-4-(methoxy-d3)-3-methyl-6′-(pyrimidin-5-yl)-3′H,5″H-dispiro[cyclohexane-1,2′-indene-1′,4″-oxazol]-5″,5″-d2-2″-amine], the IC50 in test [2] (setting [4]) was 1.3 nM.

Regarding `CO[C@H]1CC[C@]2(CC1)Cc1ccc(-c3cncc(C)c3)cc1[C@@]21COC(N)=N1` [Compound 77, (1r,1′R,4R)-4-methoxy-6′-(5-methylpyridin-3-yl)-3′H,5″H-dispiro[cyclohexane-1,2′-indene-1′,4″-oxazol]-2″-amine], in test [2] (setting [4]), the IC50 was 7.5 nM.

In the case of `[2H]C([2H])([2H])O[C@H]1CC[C@@]2(Cc3ccc(-c4cncc(F)c4)cc3[C@]23N=C(N)OC3([2H])[2H])C[C@@H]1C` [Compound 66, (1S,1′R,3S,4S)-6′-(5-fluoropyridin-3-yl)-4-(methoxy-d3)-3-methyl-3′H,5″H-dispiro[cyclohexane-1,2′-indene-1′,4″-oxazol]-5″,5″-d2-2″-amine], the values for the IC50 in test [3] and in test [2] (setting [5]) were 134 nM and less than 0.16 nM, respectively.

Regarding `CO[C@H]1CC[C@]2(CC1)Cc1ccc(-c3cncc(C)c3)cc1C21COC(N)=N1` (stereo partly drawn) [Compound 41, (1r,4r)-4-methoxy-6′-(5-methylpyridin-3-yl)-3′H,5″H-dispiro[cyclohexane-1,2′-indene-1′,4″-oxazol]-2″-amine], the IC50 in test [2] (setting [4]) is 5.1 nM.

As to `[2H]C1([2H])OC(N)=N[C@]12c1cc(-c3cccnc3F)ccc1C[C@]21CC[C@@H](OC)[C@H](C)C1` [Compound 67, (1R,1′R,3R,4R)-6′-(2-fluoropyridin-3-yl)-4-methoxy-3-methyl-3′H,5″H-dispiro[cyclohexane-1,2′-indene-1′,4″-oxazol]-5″,5″-d2-2″-amine], the results for the IC50 in test [3] and in test [2] (setting [5]) were 736 nM and 1.7 nM, respectively.
